Data from patent US9567318B2, “Substituted pyrimidine compounds and uses thereof” (Memorial Sloan-Kettering Cancer Center, priority 2009, dated 2017).

How the values were obtained:
Assay type in all cases: cell-based, human
[1] = tested on: HER2, Raf-1, Akt, Hsp70 in SKBr3 cells; test: Western blotting of Hsp90 onco-client proteins and Hsp70 in SKBr3 cells
Method: FIG. 3. Testing strategy for the discovery of YK5. a, b) SKBr3 cells were treated for 24 h with the indicated concentrations of inhibitors and cells were lysed for western blot (WB) analysis. β-actin was used as loading control. The data are consistent with those obtained from multiple repeat experiments (n≧3). c) The ability of the indicated inhibitors to compete with GM-Cy3B for Hsp90 binding in SKBr3 cell extracts was examined by fluorescence polarization. Values recorded in wells with added inhibitor were normalized to values read in control wells and plotted against the concentration of tested inhibitor. Drugs were assayed in triplicate. All compounds were used as DMSO stocks. Points, mean; bars, s.d. d) Growth inhibition: SKBr3 cells were incubated in triplicate with increasing concentrations of compound and growth over 72 h was assessed. Y-axis values below 0% represent cell death of the starting population. HER2 degradation was analyzed as in panel a), and gels were quantified by densitometry. Recorded values were normalized to control (vehicle only treated cells) and data graphed against YK5 concentration. Error bars represent the s.d. of the mean (n=3).
FIG. 8. […] Points, mean; bars, s.d. Yaxis values below 0% represent cell death of the starting population. c) Streptavidin beads (50 μl) were incubated with the indicated concentrations of YK55, YK56 or D-biotin to immobilize the corresponding compounds on beads. Beads (50 μl) were probed with SKBr3 cell extracts (500 μg), and the precipitated Hsp70 analyzed by western blot and quantified by […]. Results from three independent experiments were graphed to determine the relative binding affinity of YKs. Points, mean; bars, s.d. d) Structure of representative YKs. YK55 and YK56 are the biotinylated derivatives of YK54 and YK57, respectively.
FIG. 9. […] Cells were treated for 24 h with the indicated concentrations of YK149 and YK5. Cells were lysed and proteins analyzed by western blotting. b) Examples of the compounds of the present subject matter inhibit the activity of the oncogenic STAT3 in the triple-negative breast cancer cells MDA-MB-468. Cells were treated for the indicated times with compounds or vehicle and proteins analyzed by western blot. (c) Examples of the compounds of the present subject matter dose-dependently induce apoptosis in the acute myeloid leukemia cells MOLM13. Cells were treated for 24 h with the indicated concentration of compounds and the increase in caspase3,7 activity was measured and compared to only vehicle (DMSO) treated cells. Caspase-3,7 activity was a measure of compound potency in cleaving the caspase substrate Z-DEVD-R110 and releasing rhodamine. The percentage increase in apoptotic cells was calculated by comparing the fluorescence readings obtained from compounds with those obtained from vehicle (DMSO)-treated cells.
Western Blotting. Cells were grown to 60-70% confluence and treated with inhibitor or DMSO vehicle for the indicated times. Protein lysates were prepared in 50 mM Tris pH 7.4, 150 mM NaCl and 1% NP-40 lysis buffer. Protein concentrations were measured using the BCA kit (Pierce) according to the manufacturer's instructions. […]

[2] = tested on: MDA-MB-468, SKBr3, LNCaP, MOLM-13, Kasumi-1, OCI-Ly7 and HuH7 cells; test: Growth inhibition in a panel of cancer cells; settings: growth over 72 h
Method: Tested were MDA-MB-468 triple-negative breast cancer cells, SKBr3 HER2+breast cancer cells, LNCaP mAR+prostate cancer cells, MOLM-13 and Kasumi-1 acute myeloid leukemia cells, OCI-Ly7 diffuse large B-cell lymphoma cells and HuH7 hepatocellular carcinoma cells. […] In cancer cells, half growth inhibitory concentrations ([…]) recorded for YK5 were in high agreement with its potency to degrade Hsp90 onco-clients.
(§1) Growth Inhibition Assay. Antiproliferative effects of inhibitors were evaluated using the dye Alamar blue. This reagent offers a rapid objective measure of cell viability in cell culture, and it uses the indicator dye resazurin to measure the metabolic capacity of cells, an indicator of cell viability. Briefly, cells were plated on Costar 96-well plates. For attached cells (such as SKBr3, MDA-MB-468, LNCaP, MRCS), 8,000 cells/well were used. For suspension cells (such as MOLM-13, Kasumi-1, OCI-Ly7, PBL), 20,000 cells/well were plated. Cells were allowed to incubate for 24 h at 37° C. before drug treatment. Drugs were added in triplicates at the indicated concentrations, and the plate was incubated for 72 h. Alamar Blue (440 μM) was added, and the plate read 6 h later using the Analyst GT (Fluorescence intensity mode, excitation 530 nm, emission 580 nm, with 560=dichroic mirror). Results were analyzed using the Softmax Pro software. The percentage cell growth inhibition was calculated by comparing fluorescence readings obtained from treated versus control cells, accounting for initial cell population (time zero).

Kasumi-1 cells = test: Apoptosis, acridine orange/ethidium bromide, Kasumi-1; settings: 10 μM, 24 h
Method: FIG. 13. YK5 has a higher apoptotic effect than Hsp90 inhibitors in select tumors. (a-d) Cells were treated with the indicated concentrations of inhibitors for the times presented. (a,b) Apoptotic cells were quantified by dual acridine orange/ethidium bromide staining as described in Methods. (c,d) Molecular markers of apoptosis (PARP cleavage) were analyzed in cells treated for 24 h with indicated concentrations of inhibitors (c) or for the indicated times with the indicated concentration of inhibitors (d) by western blotting. (e) MDAMB-468 cells were treated with vehicle, TNFα (20 ng/ml), YK5 (1 μM), pretreated with YK5 for 2 h before TNFα or co-treated, and cells were lysed for western blot analysis (left), or cell death was quantified by analyzing the hypodiploid population upon propidium iodine staining (right). […]
To determine whether cell death by YK5 was attributable to apoptosis, cells were treated with YK5 and effects on morphology, as well as on several effectors and mediators of apoptosis were analyzed (FIG. 13). To quantify the number of cells undergoing apoptosis, cells were stained with acridine orange/ethidium bromide (AO/EB) and analyzed under a fluorescence microscope for the percentage of viable, apoptotic (early and late) and necrotic cells. […]
Apoptosis-Acridine Orange/Ethidium Bromide. […] Percentage of apoptotic cells was determined from 200-300 cells counted in each group.

[3] = tested on: Kasumi-1 acute myeloid leukemia cells; test: Growth Inhibition Assay (Alamar blue), Kasumi-1; settings: Kasumi-1 cells
Method: (§2) The IC50 values listed for some of these compounds illustrate the antiproliferative effects of the subject compounds and were obtained using the Growth Inhibition assays described herein.
as §1

[4] = tested on: SKBr3 HER2+ breast cancer cells; test: Growth Inhibition Assay (Alamar blue), SKBr3
Method: as §2, §1

IC50 ([3]; Homo sapiens, Kasumi 1, 72 h) [µM] | IC50 ([3]; 72 h) [µM] | IC50 ([4]; Homo sapiens, SK-BR-3, 72 h) [µM] | Compound | other results
34.1 | – | – | CCOc1nc(N2CCN(C)CC2)nc(OCC)c1Sc1nc(N)cc(NC(=O)CC)n1 [YK31, N-(6-amino-2-(4,6-diethoxy-2-(4-methylpiperazin-1-yl)pyrimidin-5-ylthio)pyrimidin-4-yl)propionamide] | lowering of biological activity, ethylamide versus acrylamide YK30 ([1]; FIG. 8a, relative to YK30): 30 fold
15 | – | 20.7 | C/C=C/C(=O)Nc1cccc(Sc2c(OC)nc(N3CCN(C)CC3)nc2OC)c1 [YK131, (E)-N-(3-(4,6-dimethoxy-2-(4-methylpiperazin-1-yl)pyrimidin-5-ylthio)phenyl)but-2-enamide] | –
– | 7.7 | – | C=C(C)C(=O)Nc1cccc(Sc2c(OC)nc(N3CCN(C)CC3)nc2OC)c1 [YK132, N-(3-(4,6-dimethoxy-2-(4-methylpiperazin-1-yl)pyrimidin-5-ylthio)phenyl)methacrylamideN-(3-(4,6-dimethoxy-2-(4-methylpiperazin-1-yl)pyrimidin-5-ylthio)phenyl)methacrylamide] | IC50 ([4]; 72 h): 17.8 µM
30.5 | 25.4 | 37.3 | COc1nc(N2CCN(C)CC2)nc(OC)c1Sc1cccc(N)c1 [YK133, 3-(4,6-dimethoxy-2-(4-methylpiperazin-1-yl)pyrimidin-5-ylthio)aniline] | –
8.9 | 7.9 | 7.7 | COc1nc(N2CCN(C)CC2)nc(OC)c1Sc1cccc(NC(=O)C2CC2)c1 [YK139, N-(3-(4,6-dimethoxy-2-(4-methylpiperazin-1-yl)pyrimidin-5-ylthio)phenyl)cyclopropanecarboxamide] | –
13.9 | 21 | – | COc1nc(N2CCN(C)CC2)nc(OC)c1Sc1cccc(NC(=O)CN)c1 [YK149, 2-amino-N-(3-(4,6-dimethoxy-2-(4-methylpiperazin-1-yl)pyrimidin-5-ylthio)phenyl)acetamide] | degradation of Hsp90 onco-client proteins (HER2, Raf-1, Akt) ([1]; SKBr3 cells, 24 h, western blot): dose-dependently reduce the steady-state levels of HER2 and Raf-1

The next lines start with the compound.

Compound | IC50 ([3]; Homo sapiens, Kasumi 1, 72 h) [µM] | IC50 ([3]; 72 h) [µM] | IC50 ([4]; Homo sapiens, SK-BR-3, 72 h) [µM] | other results
C#CCCCn1c(Cc2cc(OC)c(OC)c(OC)c2Cl)nc2c(N)nc(F)nc21 [PU24FCl, reference compound] | – | – | – | feed-back induction of Hsp70 (heat shock response) ([1]; SKBr3 cells, 24 h): potently activated a heat shock response; growth of all tested cancer cells [2]: inhibited the growth of all tested cancer cells; cells undergoing apoptosis (Kasumi-1 cells): 9%
CC(C)NCCCn1c(Sc2cc3c(cc2I)OCO3)nc2c(N)ncnc21 [PU-H71, reference compound] | – | – | – | feed-back induction of Hsp70 (heat shock response) ([1]; SKBr3 cells, 24 h): potently activated a heat shock response; growth of all tested cancer cells [2]: inhibited the growth of all tested cancer cells
C=CC(=O)Nc1cccc(Sc2c(OC)nc(N3CCN(C)CC3)nc2OC)c1 [YK129, N-(3-(4,6-dimethoxy-2-(4-methylpiperazin-1-yl)pyrimidin-5-ylthio)phenyl)acrylamide] | 7.7 | 9.9 | 6.8 | –
CCC(=O)Nc1cccc(Sc2c(OC)nc(N)nc2OC)c1 [YK140, N-(3-(2-amino-4,6-dimethoxypyrimidin-5-ylthio)phenyl)propionamide] | 35.2 | – | 99.5 | –
